{"source": "patent US10022356B2", "about": "“Compounds for treatment of cancer” (UNIVERSITY OF TENNESSEE RESEARCH FOUNDATION, priority 2013, dated 2018)", "key": {"[1]": {"test_system": "A375RF21", "assay": "In vitro combination assay (combination index) on A375RF21", "assay_type": "cell-based, human", "settings": "Treatment + Vemurafenib", "description": "(§1) Cell proliferation viability was investigated using MTS or SRB assay as described previously. An in vitro study of the combination of vemurafenib and the tubulin inhibitors was designed and conducted using CalcuSyn software (Biosoft, Ferguson, Mo.) with five duplicates of each set of treatment. Drug concentrations were selected based on the IC50 value of each drug tested from a pilot study."}, "[2]": {"test_system": "A375RF21", "assay": "Annexin V/propidium iodide apoptosis detection in A375RF21 cells", "assay_type": "cell-based, human", "settings": "48 hours incubation"}, "[3]": {"test_system": "PC-3/TxR tumors", "settings": "for Tumor size (mm^2) End / Tumor size (mm^2) Start: PC-3/TxR xenograft; for Tumor size (mm^2) End: day 1 and 9, end point day 19; for Tumor size (mm^2) Start: day 1 and 9, start"}, "[4]": {"assay": "Brain penetration (brain and plasma concentrations) in nude mice", "settings": "docetaxel IP 10 mpk, 17ya PO 20 mpk, 55 PO 20 mpk"}, "[5]": {"test_system": "A375", "assay": "In vitro combination assay (combination index, Chou-Talalay, MTS) on A375", "assay_type": "cell-based, human", "settings": "+Vemurafenib; A375 cell line (Tables 3, 4)", "description": "as §1"}, "[6]": {"test_system": "HL60 tumors", "assay": "HL60 leukemia xenograft in nude mice", "assay_type": "in vivo", "settings": "vincristine 1 mg/kg intraperitoneal injection once a week", "protocol": "The dosing schedule was once a week for two weeks. Vincristine (1 mg/mL) was administrated via intraperitoneal injection once a week."}, "[7]": {"assay": "Aqueous solubility (Multiscreen Solubility Filter Plate, LC-MS/MS)", "assay_type": "physicochemical", "protocol": "The solubility of drugs was determined by Multiscreen Solubility Filter Plate (Millipore Corporate, Billerica, Mass.) coupled with LC-MS/MS."}, "[8]": {"assay": "Pharmacokinetic study in Sprague-Dawley rats", "settings": "rat"}, "[9]": {"test_system": "three melanoma cell lines and four human prostate cancer cell lines", "assay": "Antiproliferative activity quoted in the SAR text (average of all seven cell lines)", "assay_type": "cell-based"}, "[10]": {"test_system": "B16-F1 melanoma cells", "assay": "B16-F1 melanoma colony formation assay in soft agar", "assay_type": "cell-based, mouse", "settings": "14 days; tested 20, 100, 500 nM", "experimental": "B16-F1 melanoma cells were plated at a colony-forming density (2000 cells per well on six-well plates) on top of 0.8% base agar. Cells were grown in 0.4% agar together with DMEM medium supplemented with fetal bovine serum and an antibiotic-antimycotic solution at 37° C. in an atmosphere of 95% air and 5% CO2. […] Compounds were added to the media from 1 mM DMSO stock solutions, and a corresponding dilution of DMSO was used as control. Cells were grown for 14 days. Plates were photographed, and the number of colonies was measured by Artek 880 Automated Colony Counter (Artek Systems Corporation, Farmingdale, N.Y.)."}, "[11]": {"test_system": "metastasis of melanoma to the lungs", "assay": "Melanoma lung metastasis model in mice", "assay_type": "in vivo", "settings": "i.p. injection 5 days per week for 2 weeks (FIG. 28)", "description": "Panel A: Representative photos of lungs with melanoma nodules (black dots, n=8 per group). Treatment was i.p. injection 5 days per week for 2 weeks. Panel B: Number of melanoma nodules on each lung. […] Panel C: Mouse body weight changes during the experiment. Points: means; bars: SD. Control: vehicle solution only."}, "[12]": {"assay": "Pharmacokinetic study in ICR mice", "settings": "mouse", "protocol": "All compounds (10 mg/kg) were dissolved in DMSO/PEG300 (1/9) and administered by a single intravenously (i.v.) injection (50 μL) into the tail vein."}}, "note": "Where two headings read alike, the source gives them in different places."}
{"compound": "CC(=O)O[C@@]12CO[C@@H]1C[C@H](O)[C@@]1(C)C(=O)[C@H](O)C3=C(C)[C@@H](OC(=O)[C@H](O)[C@@H](NC(=O)OC(C)(C)C)c4ccccc4)C[C@@](O)([C@@H](OC(=O)c4ccccc4)[C@H]21)C3(C)C", "note": "[Docetaxel]", "values": [{"measurement": "CI ED75", "setting": "[1]", "value": 0.80}, {"measurement": "CI ED90", "setting": "[1]", "value": 0.90}, {"measurement": "counted cell apoptosis or death (percentage sum of Q1, Q2 and Q4)", "setting": "[2]", "value": "6.4±3.0", "unit": "%"}, {"measurement": "Tumor size (mm^2) End", "setting": "[3]; IV 10mpk", "value": "1774 ± 183", "unit": "mm^2"}, {"measurement": "Tumor size (mm^2) Start", "setting": "[3]; IV 10mpk", "value": "143 ± 20", "unit": "mm^2"}, {"measurement": "Tumor size (mm^2) End", "setting": "[3]; IV 20mpk", "value": "999 ± 905", "unit": "mm^2"}, {"measurement": "Tumor size (mm^2) Start", "setting": "[3]; IV 20mpk", "value": "170 ± 80", "unit": "mm^2"}, {"measurement": "TGI (%)", "setting": "[3]; mouse, in vivo, iv, 10 mg/kg", "value": 14, "unit": "%"}, {"measurement": "Brain (ng/mL), 4 hr", "setting": "[4]", "value": "20 ± 9", "unit": "ng/mL"}, {"measurement": "Plasma (ng/mL), 1 hr", "setting": "[4]", "value": "768 ± 92", "unit": "ng/mL"}, {"measurement": "Plasma (ng/mL), 4 hr", "setting": "[4]", "value": "345 ± 94", "unit": "ng/mL"}, {"measurement": "Brain (ng/mL), 1 hr", "setting": "[4]; mean ± SD, 3 nude mice", "value": "33 ± 14", "unit": "ng/mL"}]}
{"compound": "NC1(c2ccc(-c3nc4ccn5c(=O)[nH]nc5c4cc3-c3ccccc3)cc2)CCC1", "note": "[MK2206]", "values": [{"measurement": "CI value EC75", "setting": "[5]", "value": 0.67}]}
{"compound": "CC[C@]1(O)C[C@H]2CN(CCc3c([nH]c4ccccc34)[C@@](C(=O)OC)(c3cc4c(cc3OC)N(C=O)[C@H]3[C@@](O)(C(=O)OC)[C@H](OC(C)=O)[C@]5(CC)C=CCN6CC[C@]43[C@@H]65)C2)C1", "note": "[Vincristine]", "values": [{"measurement": "tumor growth inhibition (TGI)", "setting": "[6]", "value": 84, "unit": "%"}]}
{"compound": "COc1cc(C(=O)c2csc(-c3ccccc3)n2)cc(OC)c1OC", "note": "[1 h, reference compound]", "values": [{"measurement": "Aqueous solubility", "setting": "[7]; PBS pH 7.4", "value": "(1.1) μg/mL"}, {"measurement": "oral bioavailability", "setting": "[8]", "value": 3.3, "unit": "%"}]}
{"compound": "COc1cccc2c1C(=O)c1c(O)c3c(c(O)c1C2=O)C[C@@](O)(C(=O)CO)C[C@@H]3O[C@H]1C[C@H](N)[C@H](O)[C@H](C)O1", "note": "[Doxorubicin]", "values": [{"measurement": "CI value EC75", "setting": "[5]", "value": 11.6}]}
{"compound": "O=C(c1ccc(F)cc1)c1c[nH]c(-c2ccc(OCc3ccccc3)cc2)n1", "note": "[12jb, (2-(4-(benzyloxy)phenyl)-1H-imidazol-4-yl)(4-fluorophenyl)methanone]", "values": [{"measurement": "increase in activity compared with the para-hydroxy compound 12kb", "setting": "[9]", "value": 440, "unit": "fold"}]}
{"compound": "COc1ccc(-c2nc(C(=O)c3ccc(F)cc3)c[nH]2)cc1", "note": "[12cb, (4-fluorophenyl)(2-(4-methoxyphenyl)-1H-imidazol-4-yl)methanone]", "values": [{"measurement": "concentration showing effective inhibition of B16-F1 colony formation", "setting": "[10]", "value": 20, "unit": "nM"}, {"measurement": "metastasis of melanoma to the lungs", "setting": "[11]", "value": "inhibition"}]}
{"compound": "CCN(CC)CCNC(=O)c1c(C)[nH]c(/C=C2\\C(=O)Nc3ccc(F)cc32)c1C", "note": "[Sunitinib]", "values": [{"measurement": "CI ED75", "setting": "[1]", "value": 0.91}, {"measurement": "CI ED90", "setting": "[1]", "value": 0.93}]}
{"compound": "COc1cc(C(=O)c2c[nH]c(-c3ccc(Cl)cc3)n2)cc(OC)c1OC", "note": "[drawing 51]", "values": [{"measurement": "Solubility", "setting": "[7]; aqueous", "value": 12, "unit": "µg/mL"}, {"measurement": "MousePK_IV10mgk_Cl", "setting": "[12]; IV 10 mg/kg", "value": 61, "unit": "mL/min/kg"}, {"measurement": "MousePK_IV10mgk_V", "setting": "[12]; IV 10 mg/kg", "value": 4, "unit": "L/kg"}, {"measurement": "MousePK_PO20mgk_AUC", "setting": "[12]; PO 20 mg/kg", "value": 201, "unit": "µg·min/mL"}, {"measurement": "MousePK_PO20mgk_Cmax", "setting": "[12]; PO 20 mg/kg", "value": 2592, "unit": "ng/mL"}, {"measurement": "RatPK_IV5mgk_Cl", "setting": "[8]; IV 5 mg/kg", "value": 16, "unit": "mL/min/kg"}, {"measurement": "RatPK_IV5mgk_V", "setting": "[8]; IV 5 mg/kg", "value": 1.9, "unit": "L/kg"}, {"measurement": "RatPK_PO10mgk_AUC", "setting": "[8]; PO 10 mg/kg", "value": 218, "unit": "µg·min/mL"}, {"measurement": "RatPK_PO10mgk_Cmax", "setting": "[8]; PO 10 mg/kg", "value": 1109, "unit": "ng/mL"}]}
